Assay results reported in PMC8649774, “A New Class of Cell Wall-Recycling L,D-Carboxypeptidase Determines β-Lactam Susceptibility and Morphogenesis in Acinetobacter baumannii” (mBio, 2021).

Target: T1, ElsL (ElsLHis) (Acinetobacter baumannii, UniProt A0ABX6CN83)
T1 construct: gene FQU82_03167; leaderless cytoplasmic YkuD-domain protein, C-terminal 6xHis (pET28b), expressed in E. coli BL21(DE3), Ni-NTA purified with TCEP
Assay: UPLC-MS of reaction products
Format: biochemical
Conditions: 100 mM Tris-HCl, 37 °C, 2 h, 10 ng enzyme; M4 purified from Caulobacter crescentus sacculi

Which “UPLC-MS of reaction products” value does the source give for `CC(=O)N[C@H]1[C@H](O[C@H]2[C@H](O[C@H](C)C(=O)N[C@@H](C)C(=O)N[C@H](CCC(=O)N[C@@H](CCC[C@@H](N)C(=O)O)C(=O)N[C@H](C)C(=O)O)C(=O)O)[C@@H](NC(C)=O)C(O)O[C@@H]2CO)O[C@H](CO)[C@@H](O)[C@@H]1O` (stereo partly shown) [M4, murotetrapeptide] here?
Its value is “ElsL completely cleaved the M4 substrate to the disaccharide tripeptide (M3)”.
